Measurements reported in patent EP0584797A2, “Novel cephalosporin compounds and processes for the preparation thereof” (LUCKY LTD., priority 1992, dated 1994).
Values after ≈ are worked out from the molar mass of the structure shown.

How the values were obtained:
Experiment in all cases: minimal inhibitory concentration, two-fold agar dilution
Format in all cases: cell-based
[1] = system: Staphylococcus epidermidis ATCC 12228; conditions: ATCC12228, Muller-Hinton agar, 37°C, 20 hours, read-out: MIC values against the standard strains
Outline: (§1)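 Compounds were serially diluted two-fold into Mueller-Hinton agar, and each plate was spot-inoculated with the test strain at 10⁷ CFU per ml. Plates were incubated at 37°C for 20 hours before MIC values were read.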

[2] = system: Bacillus cereus ATCC 11778; conditions: ATCC11778, Muller-Hinton agar, 37°C, 20 hours, read-out: MIC values against the standard strains
Outline: as §1

[3] = system: Salmonella typhimurium ATCC 14028; conditions: Salmonella enterica; Muller-Hinton agar; 37°C; 20 hours; read-out: MIC values against the standard strains
Outline: as §1

[4] = system: Shigella flexneri ATCC 11836; conditions: ATCC11836, Muller-Hinton agar, 37°C, 20 hours, read-out: MIC values against the standard strains
Outline: as §1

[5] = system: Streptococcus faecalis ATCC 29212; conditions: Enterococcus faecalis, ATCC29212; Muller-Hinton agar; 37°C; 20 hours; read-out: MIC values against the standard strains
Outline: as §1

[6] = system: Pseudomonas aeruginosa ATCC 27853; conditions: ATCC27853, Muller-Hinton agar, 37°C, 20 hours, read-out: MIC values against the standard strains
Outline: as §1

[7] = system: Klebsiella pneumoniae ATCC 10031; conditions: ATCC10031, Muller-Hinton agar, 37°C, 20 hours, read-out: MIC values against the standard strains
Outline: as §1

[8] = system: Enterobacter cloacae ATCC 27508; conditions: ATCC27508, Muller-Hinton agar, 37°C, 20 hours, read-out: MIC values against the standard strains
Outline: as §1

[9] = system: Providencia rettgeri ATCC 9250; conditions: ATCC9250, Muller-Hinton agar, 37°C, 20 hours, read-out: MIC values against the standard strains
Outline: as §1

[10] = system: Escherichia coli ATCC 25922; conditions: ATCC25922, Muller-Hinton agar, 37°C, 20 hours, read-out: MIC values against the standard strains
Outline: as §1

[11] = system: Shigella sonnei ATCC 11060; conditions: ATCC11060, Muller-Hinton agar, 37°C, 20 hours, read-out: MIC values against the standard strains
Outline: as §1

[12] = system: Serratia marcescens ATCC 27117; conditions: ATCC27117, Muller-Hinton agar, 37°C, 20 hours, read-out: MIC values against the standard strains
Outline: as §1

[13] = system: Morganella morganii ATCC 8076h; conditions: ATCC8076H, Muller-Hinton agar, 37°C, 20 hours, read-out: MIC values against the standard strains
Outline: as §1

[14] = system: Proteus vulgaris ATCC 6059; conditions: ATCC6059, Muller-Hinton agar, 37°C, 20 hours, read-out: MIC values against the standard strains
Outline: as §1

[15] = system: Enterobacter aerogenes ATCC 29751; conditions: Klebsiella aerogenes, ATCC29751; Muller-Hinton agar; 37°C; 20 hours; read-out: MIC values against the standard strains
Outline: as §1

[16] = system: Citrobacter freundii ATCC 8090; conditions: ATCC8090, Muller-Hinton agar, 37°C, 20 hours, read-out: MIC values against the standard strains
Outline: as §1

[17] = system: Escherichia coli ATCC 10536; conditions: ATCC10536, Muller-Hinton agar, 37°C, 20 hours, read-out: MIC values against the standard strains
Outline: as §1

[18] = system: Staphylococcus aureus ATCC 6538p; conditions: ATCC6538P, Muller-Hinton agar, 37°C, 20 hours, read-out: MIC values against the standard strains
Outline: as §1

[19] = system: Bacillus megaterium ATCC 9885; conditions: Priestia megaterium, ATCC9885; Muller-Hinton agar; 37°C; 20 hours; read-out: MIC values against the standard strains
Outline: as §1

[20] = system: Pseudomonas aeruginosa ATCC 25619; conditions: ATCC25619, Muller-Hinton agar, 37°C, 20 hours, read-out: MIC values against the standard strains
Outline: as §1

[21] = system: Acinetobacter calcoaceticus ATCC 15437; conditions: ATCC15437, Muller-Hinton agar, 37°C, 20 hours, read-out: MIC values against the standard strains
Outline: as §1

[22] = system: Micrococcus luteus ATCC 9341; conditions: ATCC9341, Muller-Hinton agar, 37°C, 20 hours, read-out: MIC values against the standard strains
Outline: as §1

[23] = system: Staphylococcus aureus ATCC 10537; conditions: ATCC10537, Muller-Hinton agar, 37°C, 20 hours, read-out: MIC values against the standard strains
Outline: as §1

[24] = system: Pseudomonas aeruginosa ATCC 10145; conditions: ATCC10145, Muller-Hinton agar, 37°C, 20 hours, read-out: MIC values against the standard strains
Outline: as §1

[25] = system: Proteus mirabilis ATCC 25933; conditions: ATCC25933, Muller-Hinton agar, 37°C, 20 hours, read-out: MIC values against the standard strains
Outline: as §1

[26] = system: Acinetobacter calcoaceticus ATCC 15473; conditions: ATCC15473, Muller-Hinton agar, 37°C, 20 hours, read-out: MIC values against the standard strains
Outline: as §1

SMILES	MIC [1]	MIC [2]	MIC [3]	MIC [4]	MIC [5]	MIC [6]	MIC [7]	MIC [8]	MIC [9]	MIC [10]	MIC [11]	MIC [12]	MIC [13]	MIC [14]	MIC [15]	MIC [16]	MIC [17]	MIC [18]	MIC [19]	MIC [20]	further results
CCO/N=C(\C(=O)N[C@@H]1C(=O)N2C(C(=O)[O-])=C(CSc3nc(N)cc(OC)[n+]3C)CS[C@H]12)c1csc(N)n1 [Example 18, 7-[(Z)-2-(2-aminothiazol-4-yl)-2-(ethoxyimino)acetamido]-3-(4-amino-6-methoxy-1-methylpyrimidinium-2-yl)thiomethyl-3-cephem-4-carboxylate]	0.13 µg/mL (≈ 0.224 µM)	32 µg/mL (≈ 55.1 µM)	0.5 µg/mL (≈ 0.861 µM)	0.13 µg/mL (≈ 0.224 µM)	16 µg/mL (≈ 27.6 µM)	16 µg/mL (≈ 27.6 µM)	≤ 0.008 µg/mL	≤ 0.008 µg/mL	≤ 8 ng/mL	0.25 µg/mL (≈ 0.431 µM)	0.25 µg/mL (≈ 0.431 µM)	0.5 µg/mL (≈ 0.861 µM)	≤ 8 ng/mL	0.5 µg/mL (≈ 0.861 µM)	1 µg/mL (≈ 1.72 µM)	0.13 µg/mL (≈ 0.224 µM)	0.13 µg/mL (≈ 0.224 µM)	0.5 µg/mL (≈ 0.861 µM)	0.13 µg/mL (≈ 0.224 µM)	2 µg/mL (≈ 3.44 µM)	MIC [21]: 8 µg/mL (≈ 13.8 µM); MIC [22]: 0.016 µg/mL (≈ 0.0276 µM); MIC [23]: 0.25 µg/mL (≈ 0.431 µM); MIC [24]: 16 µg/mL (≈ 27.6 µM); MIC [25]: 0.5 µg/mL (≈ 0.861 µM)
CCO/N=C(\C(=O)N[C@@H]1C(=O)N2C(C(=O)[O-])=C(CSc3nc(N)c(N)c(N)[n+]3C)CS[C@H]12)c1csc(N)n1 [Example 3, 7-[(Z)-2-(aminothiazol-4-yl)-2-(ethoxyimino)acetamido]-3-(4,5,6-triamino-1-methylpyrimidinium-2-yl)thiomethyl-3-cephem-4-carboxylate]	0.13 µg/mL (≈ 0.224 µM)	32 µg/mL (≈ 55.1 µM)	0.5 µg/mL (≈ 0.861 µM)	0.063 µg/mL (≈ 0.108 µM)	64 µg/mL (≈ 110 µM)	4 µg/mL (≈ 6.89 µM)	≤ 0.008 µg/mL	0.016 µg/mL (≈ 0.0276 µM)	≤ 8 ng/mL	0.063 µg/mL (≈ 0.108 µM)	0.25 µg/mL (≈ 0.431 µM)	0.25 µg/mL (≈ 0.431 µM)	≤ 8 ng/mL	0.25 µg/mL (≈ 0.431 µM)	0.5 µg/mL (≈ 0.861 µM)	0.063 µg/mL (≈ 0.108 µM)	0.063 µg/mL (≈ 0.108 µM)	0.5 µg/mL (≈ 0.861 µM)	0.031 µg/mL (≈ 0.0534 µM)	0.5 µg/mL (≈ 0.861 µM)	MIC [21]: 8 µg/mL (≈ 13.8 µM); MIC [22]: 0.031 µg/mL (≈ 0.0534 µM); MIC [23]: 0.25 µg/mL (≈ 0.431 µM); MIC [24]: 8 µg/mL (≈ 13.8 µM); MIC [25]: 0.25 µg/mL (≈ 0.431 µM)
Nc1cc[n+](N)c(SCC2=C(C(=O)[O-])N3C(=O)[C@@H](NC(=O)/C(=N\OCC(=O)O)c4csc(N)n4)[C@H]3SC2)n1 [Example 75, 7-[(Z)-2-(2-aminothiazol-4-yl)-2-(carboxymethoxyimino)acetamido]-3-(1,4-diaminopyrimidinium-2-yl)thiomethyl-3-cephem-4-carboxylate]	4 µg/mL (≈ 6.88 µM)	128 µg/mL (≈ 220 µM)	0.063 µg/mL (≈ 0.108 µM)	0.016 µg/mL (≈ 0.0275 µM)	> 128 µg/mL	4 µg/mL (≈ 6.88 µM)	0.016 µg/mL (≈ 0.0275 µM)	≤ 0.008 µg/mL	≤ 8 ng/mL	0.016 µg/mL (≈ 0.0275 µM)	0.016 µg/mL (≈ 0.0275 µM)	0.031 µg/mL (≈ 0.0533 µM)	≤ 8 ng/mL	0.031 µg/mL (≈ 0.0533 µM)	0.5 µg/mL (≈ 0.86 µM)	0.031 µg/mL (≈ 0.0533 µM)	0.016 µg/mL (≈ 0.0275 µM)	8 µg/mL (≈ 13.8 µM)	0.5 µg/mL (≈ 0.86 µM)	4 µg/mL (≈ 6.88 µM)	MIC [26]: 4 µg/mL (≈ 6.88 µM); MIC [22]: 2 µg/mL (≈ 3.44 µM); MIC [23]: 4 µg/mL (≈ 6.88 µM); MIC [24]: 8 µg/mL (≈ 13.8 µM); MIC [25]: 0.063 µg/mL (≈ 0.108 µM)
